Measured values published in US8722663B2, “Di-substituted pyridine derivatives as anticancers” (Otsuka Pharmaceutical Co., Ltd., priority 2010, dated 2014).

What was measured:
PSA = test: Plasma levels of PSA in LNCaP-Bic tumor bearing nude mice, ELISA; assay type: in vivo; conditions: Mus musculus, po, 336 h; 10 mg/kg/day orally, once daily, 14 consecutive days; plasma PSA by ELISA; read-out: T/C(%) (10 mg/kg/day), plasma levels of PSA treated/control
Procedure: (§1) Human prostate cancer cells (LNCaP-Bic) were transplanted in nude mice (6 males/group) and the inhibitory effect of the invention on their growth was examined. In the study, the tumor cell suspension with matrigel was inoculated at 0.12 mL/body (2.4×10^6 cells/body) into the subcutaneous space of the right axillary region to prepare tumor bearing mice. When the tumor diameter became 5 mm or more, the animals were allocated to groups based on the tumor volume. The test compound was administered orally as a suspension in 5% gum arabic, once daily, for 14 consecutive days. The control group received 5% gum arabic. Tumor volumes were measured on the following day of the last administration. Tumors were removed and the wet weight of the tumor was measured using an electronic balance. The ratio of the tumor weight in the treated group to that in the control group (T/C %) was calculated as the index for the effect. T/C %=(Mean tumor weight in the treatment group/Mean tumor weight in the control group)×100.
The heparinized blood was collected from the postcava under diethylether anesthesia. The plasma levels of PSA were measured using ELISA. The ratio of the plasma levels of PSA in the treated group to that in the control group (T/C %) was calculated as the index for the effect. T/C %=(Mean plasma levels of PSA in the treatment group/Mean plasma levels of PSA in the control group)×100.

[1] = tested on: Human prostate cancer cells (LNCaP-Bic); test: Antitumor effect on LNCaP-Bic tumors transplanted in nude mice, tumor weight; assay type: in vivo; conditions: Mus musculus, po, 336 h, 10 mg/kg/day orally, once daily, 14 consecutive days, read-out: T/C(%) (10 mg/kg/day), tumor weight treated/control
Procedure: as §1

[2] = tested on: human breast cancer cell line (MDA-MB-468); test: Growth inhibition of MDA-MB-468 cells, sulforhodamine B method; assay type: cell-based; conditions: 120 h, 5 days with test compound
In short: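 MDA-MB-468 cells in DMEM/10% FBS were incubated 24 h at 37° C., then exposed to compound for 5 days. After TCA fixation and sulforhodamine B staining, OD 492 nm minus 690 nm was read with cell-free background subtracted. IC50 was set against untreated control.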

[3] = tested on: human hepatic cancer cell line (HuH-7); test: Growth inhibition of HuH-7 cells, sulforhodamine B method; assay type: cell-based; conditions: Homo sapiens, 120 h, 5 days with test compound
[4] = tested on: human prostate (adenocarcinoma) cell line (VcaP); test: Growth inhibition of VcaP cells, WST-8 assay; assay type: cell-based; conditions: 120 h, 5 days with test compound
In short: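 Cells in RPMI 1640 with 10% FBS were preincubated 24 h at 37° C., 5% CO2, then exposed to compound for 5 days. Growth read by WST-8 at 450 nm minus 630 nm, cell-free background subtracted. IC50 derived relative to untreated control.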

[5] = tested on: human prostate (carcinoma) cell line (DU 145); test: Growth inhibition of DU 145 cells, WST-8 assay; assay type: cell-based; conditions: 120 h, 5 days with test compound
In short: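 DU 145 cells in RPMI 1640 with 10% FBS were pre-incubated 24 h at 37° C, 5% CO2, then exposed to compound for 5 days. Growth was read by WST-8 reduction (OD 450 minus 630 nm, cell-free blank subtracted). IC50 was taken relative to untreated control.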

[6] = tested on: human prostate (carcinoma) cell line (LNCaP.FGC); test: Growth inhibition of LNCaP.FGC cells, WST-8 assay; assay type: cell-based; conditions: 120 h, 5 days with test compound
In short: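 Bicalutamide-resistant LNCaP-Bic cells (and parental LNCaP.FGC) in RPMI 1640 + 10% FBS were preincubated 24 h at 37 °C, 5% CO2, then exposed to compound for 5 days. Growth read by WST-8, OD 450 nm minus 630 nm, cell-free blank subtracted; IC50 (nM) taken relative to untreated control.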

[7] = tested on: bicalutamide resistant human prostate cancer cell line established from LNCaP.FGC (LNCaP-Bic); test: Growth inhibition of LNCaP-Bic cells, WST-8 assay; assay type: cell-based; conditions: 120 h, 5 days with test compound
In short: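 Cells in RPMI 1640 with 10% FBS preincubated 24 h at 37 °C, 5% CO2, then exposed to compound for 5 days. WST-8 read-out, OD 450 minus 630 nm after cell-free blank subtraction; IC50 (nM) derived against untreated control growth.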

[8] = tested on: human prostate (adenocarcinoma) cell line (PC-3); test: Growth inhibition of PC-3 cells, WST-8 assay; assay type: cell-based; conditions: 120 h, 5 days with test compound
In short: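 Cells seeded in RPMI 1640 with 10% FBS, grown 24 h at 37 °C, 5% CO2, then exposed to compound for 5 days. WST-8 read-out, OD 450 nm minus 630 nm reference, cell-free blank subtracted. IC50 (nM) from growth relative to compound-free control.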

SMILES	response vs control in vivo at 10 mg/kg (PSA) [%]	response vs control in vivo at 10 mg/kg [1] [%]	IC50 [2] [nM]	melting point [°C]	IC50 [3] [nM]	IC50 [4] [nM]	IC50 [5] [nM]	IC50 [6] [nM]	IC50 [7] [nM]	IC50 [8] [nM]
Cc1cc(/C=C/C(=O)N2CCN(Cc3ccc(CCOc4ccc(F)cc4)cc3)CC2)cc(Cl)c1Oc1ccc(OCc2ccc(F)cc2)cn1.Cl [Example 435, (E)-3-[3-Chloro-4-({5-[(4-fluorobenzyl)oxy]pyridin-2-yl}oxy)-5-methylphenyl]-1-(4-{4-[2-(4-fluorophenoxy)ethyl]benzyl}piperazin-1-yl)prop-2-en-1-one hydrochloride]	< 50	< 50	< 10	214.3 to 216.2	< 10	< 10	< 10	< 10	< 10	< 10
Cc1ccc(COc2ccc(Oc3c(C)cc(/C=C/C(=O)N4CCN(Cc5ccc(CCOc6ccc(C)cc6)cc5)CC4)cc3Cl)nc2)cc1.Cl [Example 432, (E)-3-[3-Chloro-5-methyl-4-({5-[(4-methylbenzyl)oxy]pyridin-2-yl}oxy)phenyl]-1-(4-{4-[2-(4-methylphenoxy)ethyl]benzyl}piperazin-1-yl)prop-2-en-1-one hydrochloride]	< 50	< 50	< 10	232.1 to 232.7	< 10	< 10	< 10	< 10	< 10	< 10
Cc1ccc(OCCc2ccc(CN3CCN(C(=O)/C=C/c4cc(C)c(Oc5ccc(OCc6ccc(Cl)cc6)cn5)c(Cl)c4)CC3)cc2)cc1.Cl [Example 777, (E)-3-[3-chloro-4-({5-[(4-chlorobenzyl)oxy]pyridin-2-yl}oxy)-5-methylphenyl]-1-(4-{4-[2-(4-methylphenoxy)ethyl]benzyl}piperazin-1-yl)prop-2-en-1-one hydrochloride]	< 50	< 50	< 10	220.1 to 220.3	< 10	< 10	< 10	< 10	< 10	< 10
Cc1ccc(COc2ccc(Oc3c(C)cc(/C=C/C(=O)N4CCN(Cc5ccc(CCOc6ccc(F)cc6)cc5)CC4)cc3Cl)nc2)cc1.Cl [Example 430, (E)-3-[3-Chloro-5-methyl-4-({5-[(4-methylbenzyl)oxy]pyridin-2-yl}oxy)phenyl]-1-(4-{4-[2-(4-fluorophenoxy)ethyl]benzyl}piperazin-1-yl)prop-2-en-1-one hydrochloride]	< 50	< 50	< 10	227.1 to 227.2	< 10	< 10	< 10	< 10	< 10	< 10
